The conditions of series [1]: mouse, in vivo, iv.
Experimental: C57B1 male mice bearing the B16-F10 (B16) melanoma tumor were divided into three groups: Group A-injected once (iv with fluoresceinamine-SP1 conjugate (10 mg/ml, 0.1 ml per mouse), n=5 mice;
Group B-injected once with unconjugated fluoresceinamine solution (34 mM in PBS, 0.1 ml per animal); n=5 mice; and Group C received no treatment. n=2 mice. Internal organs were harvested 24 hours post injection, and stored at 70° C. Blood was collected and left at room temperature to coagulate. Tumor extracts and serum samples were analyzed on SDS PAGE, and proteins were blotted onto nitrocellulose. Immunodetection of SP1 was with rabbit anti SP1 and HRP-conjugated second antibody.
B16-F10 (B16) melanoma tumor C57B1 male mice bearing the B16-F10 (B16) melanoma tumor were prepared and cared for as described by Kalechman (Int J Cancer 2000; 86:281-8). B16F10 melanoma cells (5×10^5 or 5×10^6 cells/mouse) were injected into the lateral tail vein of the mice and the presence of cancer tumors was evaluated at day 14 following melanoma cell injection by an overall view of the mouse and/or histopathology examinations. […]
In series [2] the test system is SP1. Nature of the series: Vinblastine binding to SP1 by intrinsic tryptophan fluorescence. Set-up: species or system Populus tremula. To be noted: native SP1; 80 μM Vinblastine shifts maximal emission to 356 nm. The method, then:
FIG. 23 is a graph showing the complex formation of the drug Vinblastine to SP1. Left panel-emission spectra (excitation wavelength=286.00 nm) of pure SP1 (48 μM in MES) was determined using a fluorometer. Both native (left curves) and unfolded (6M Guanidinum HCl)(right curves) SP1 were tested. The net effect of Vinblastine on Tryptophan fluorescence of native protein was calculated by subtracting the relative quenching by the unfolded protein from those of the native protein at the respective maximal emission wavelength (340 nm and 321 nm respectively). Note that the tryptophan fluorescence of both the folded and unfolded SP1 protein is quenched by Vinblastine complexing, but in the case of the folded protein is also accompanied by a red shift);
Vinblastine, a vinca alkaloid, is mainly useful for treating Hodgkin's disease, lymphocytic lymphoma, histiocytic lymphoma, advanced testicular cancer, advanced breast cancer, Kaposi's sarcoma. Vinblastine binding to SP1, was determined by Intrinsic Tryptophan fluorescence measurements.
SP1 has only one Tryptophan residue (Trp 48). […] Unfolded protein fluorescence is also quenched by Vinblastine (FIG. 23), but unlike the native protein it is not accompanied by red shift. Thus, folded SP1-Vinblastine association can be detected, and quantified by changes in its Intrinsic Tryptophan fluorescence.

Consider two compounds from patent US20150273076A1, “SP1 POLYPEPTIDES, MODIFIED SP1 POLYPEPTIDES AND USES THEREOF” (Fulcrum SP Ltd., priority 2006, published 2015).

`Nc1ccc2c(c1)C(=O)OC21c2ccc(O)cc2Oc2cc(O)ccc21` [Fluoresceinamine]: the clearance from circulation entry in series [1] is listed as “rapidly cleared”. Consider `CC[C@]1(O)C[C@@H]2CN(CCc3c([nH]c4ccccc34)[C@@](C(=O)OC)(c3cc4c(cc3OC)N(C)[C@H]3[C@@](O)(C(=O)OC)[C@H](OC(C)=O)[C@]5(CC)C=CCN6CC[C@]43[C@@H]65)C2)C1` [Vinblastine], for which, in series [2], the “effect on SP1 tryptophan fluorescence” value is reported as “fluorescence quenching accompanied by a red shift”.
